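Dose response: 5 concentrations. Exposure: 48 h. Format: 96-well plates. Endpoint: linear interpolation; highest concentration if not reached. The concentration for 50% growth inhibition is given as GI50. TGI: total growth inhibition.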
Columns and labels:
Assay in all cases: growth of human tumour cells (NCI), 48 h; in the data active = GI50 below about 0.43 µM; inactive = the rest
[1] = tested on: MDA-MB-231 breast
[2] = tested on: SNB-75 CNS
[3] = tested on: IGROV1 ovarian
[4] = tested on: UO-31 renal
[5] = tested on: SW-620 colon
[6] = tested on: HCT-116 colon
[7] = tested on: HCT-15 colon
[8] = tested on: RXF 393 renal
[9] = tested on: SK-MEL-28 melanoma
[10] = tested on: NCI-H226 lung
[11] = tested on: PC-3 prostate
[12] = tested on: DU-145 prostate
[13] = tested on: MALME-3M melanoma
[14] = tested on: NCI-H23 lung
[15] = tested on: SK-MEL-2 melanoma
[16] = tested on: A549 NSCLC
[17] = tested on: HS 578T breast
[18] = tested on: 786-0 renal
[19] = tested on: OVCAR-5 ovarian
[20] = tested on: UACC-257 melanoma
[21] = tested on: KM12 colon
[22] = tested on: HOP-62 NSCLC
[23] = tested on: CAKI-1 renal
[24] = tested on: A498 renal
[25] = tested on: HCC-2998 colon
[26] = tested on: ACHN renal
[27] = tested on: NCI-H522 lung
[28] = tested on: SF-268 CNS
[29] = tested on: BT-549 breast
[30] = tested on: HT29 colon
[31] = tested on: SN12C renal
[32] = tested on: NCI/ADR-RES ovarian
[33] = tested on: SF-295 CNS
[34] = tested on: SK-OV-3 ovarian
[35] = tested on: LOX IMVI melanoma
[36] = tested on: OVCAR-4 ovarian
[37] = tested on: NCI-H460 lung
[38] = tested on: K-562 leukemia
[39] = tested on: SR leukemia
[40] = tested on: UACC-62 melanoma
[41] = tested on: CCRF-CEM leukemia
[42] = tested on: T-47D breast
[43] = tested on: EKVX NSCLC
[44] = tested on: SF-539 CNS
[45] = tested on: OVCAR-3 ovarian
[46] = tested on: RPMI-8226 leukemia
[47] = tested on: TK-10 renal
[48] = tested on: OVCAR-8 ovarian
[49] = tested on: SNB-19 CNS
[50] = tested on: U251 CNS
[51] = tested on: MCF7 breast
[52] = tested on: COLO 205 colon
[53] = tested on: M14 melanoma
[54] = tested on: MDA-MB-435
[55] = tested on: HL-60(TB) leukemia
[56] = tested on: SK-MEL-5 melanoma
[57] = tested on: MOLT-4 leukemia
[58] = tested on: HOP-92 NSCLC

COC(=O)C1=C(OC(=O)/C(=C/c2ccccc2)c2ccccc2)C(C(=O)OC)[C@@]2(O)[C@@H](C(=O)OC)[C@H](C)C[C@@H]1[C@@H]2C(=O)OC (some centres undefined)
> 100 µM: TGI [1] | TGI [2] | TGI [3] | TGI [4] | TGI [5] | TGI [6] | TGI [7] | TGI [8] | TGI [9] | TGI [10] | TGI [11] | TGI [12] | TGI [13] | TGI [14] | TGI [15] | TGI [16] | TGI [17] | TGI [18] | TGI [19] | TGI [20] | TGI [21] | TGI [22] | TGI [23] | TGI [24] | TGI [25] | TGI [26] | TGI [27] | TGI [28] | TGI [29] | TGI [30] | TGI [31] | TGI [32] | TGI [33] | TGI [34] | TGI [35] | TGI [36] | TGI [37] | TGI [38] | TGI [39] | TGI [40] | TGI [41] | TGI [42] | TGI [43] | TGI [44] | TGI [45] | TGI [46] | TGI [47] | TGI [48] | TGI [49] | TGI [50] | TGI [51] | TGI [52] | TGI [53] | TGI [54] | TGI [55] | TGI [56]

C=C(CN1CCc2ccccc2C1)c1ccc(CCC(=O)Nc2ccccc2N)cc1
50.3 µM: TGI [50]
37 µM: TGI [44]
59.5 µM: TGI [48]
64.4 µM: TGI [2]
97.9 µM: TGI [7]
> 100 µM: TGI [9] | TGI [11] | TGI [16] | TGI [17] | TGI [18] | TGI [19] | TGI [22] | TGI [26] | TGI [30] | TGI [34] | TGI [40] | TGI [41] | TGI [42] | TGI [43] | TGI [46] | TGI [47] | TGI [49] | TGI [58]
71.2 µM: TGI [10]
86.7 µM: TGI [33]
44.1 µM: TGI [1]
65.8 µM: TGI [5]
83.3 µM: TGI [32]
32.4 µM: TGI [6]
77.1 µM: TGI [23]
63.5 µM: TGI [45]
26 µM: TGI [57]
38.6 µM: TGI [37]
48 µM: TGI [52]
51 µM: TGI [31]
49.9 µM: TGI [54]
inactive: GI50 [1] 18.6 µM | GI50 [2] 25.3 µM | GI50 [3] 16.3 µM | GI50 [4] 12 µM | GI50 [5] 28.3 µM | GI50 [6] 16.2 µM | GI50 [7] 35.4 µM | GI50 [9] 42.6 µM | GI50 [10] 27.1 µM | GI50 [11] 25.4 µM | GI50 [12] 18.7 µM | GI50 [13] 8.7 µM | GI50 [14] 28.6 µM | GI50 [15] 23.9 µM | GI50 [16] 41.3 µM | GI50 [17] 44 µM | GI50 [18] 18.3 µM | GI50 [19] 54.1 µM | GI50 [20] 22.6 µM | GI50 [21] 21.9 µM | GI50 [22] 65.7 µM | GI50 [23] 20.9 µM | GI50 [24] 26.1 µM | GI50 [25] 17.1 µM | GI50 [26] 34.1 µM | GI50 [27] 16.2 µM | GI50 [28] 14.6 µM | GI50 [29] 16.4 µM | GI50 [30] 31 µM | GI50 [31] 17.3 µM | GI50 [32] 18.9 µM | GI50 [33] 24.2 µM | GI50 [34] 60.8 µM | GI50 [57] 4.65 µM | GI50 [37] 16.8 µM | GI50 [38] 23 µM | GI50 [39] 18.7 µM | GI50 [40] 26.9 µM | GI50 [41] 4.66 µM | GI50 [42] 34.3 µM | GI50 [43] 37.1 µM | GI50 [44] 19.4 µM | GI50 [45] 19.3 µM | GI50 [46] 14.8 µM | GI50 [47] 43.1 µM | GI50 [48] 26.2 µM | GI50 [49] 64.3 µM | GI50 [58] 87.4 µM | GI50 [50] 21.3 µM | GI50 [51] 21.1 µM | GI50 [52] 23.6 µM | GI50 [53] 17.6 µM | GI50 [54] 22.5 µM | GI50 [56] 18 µM
54.7 µM: TGI [51]
45.3 µM: TGI [28]
68.7 µM: TGI [24]
28.7 µM: TGI [4]
41.9 µM: TGI [3]
85.2 µM: TGI [14]
54 µM: TGI [15]
46.4 µM: TGI [20]
36.8 µM: TGI [13]
74.5 µM: TGI [39]
38.2 µM: TGI [27]
48.7 µM: TGI [12]
34.3 µM: TGI [53]
33.4 µM: TGI [25]
71.8 µM: TGI [21]
56.9 µM: TGI [38]
55.1 µM: TGI [29]
33.2 µM: TGI [56]
